Test results from patent US20250108038A1 (priority 2023, published 2025).
Where “and” joins values, the source holds several entries; their conditions need not be identical. Equal values may be shown once.

Test system: Long Evans rats
Assay: Behavioral satiety sequence (BSS)
Assay type: in vivo, Long Evans rat
Description: The Behavioural Satiety Sequence (BSS) is a technique used to evaluate physiological satiety. It is based on the expression of a sequence of behaviors including eating, grooming, locomotor activity, followed by resting, which are typically observed in rodents post-ingestion (Halford et al, 1998, Pharmacology Biochemistry and Behaviour. 61(2): 159-168). The BSS is a widely used model for determining the effects of novel pharmaceuticals on food intake and measures of satiety in rodents (Oliveira et al, 2011, Revista de Nutrição. 24(4) 619-628), and to discriminate the cause of reduced food intake following pharmacological manipulation. For example, treatments that may reduce food intake by non-specific mechanisms, such as immobility, malaise, and taste adulteration, will disrupt this sequence (Halford et al, 1998, Pharmacology Biochemistry and Behaviour. 61(2): 159-168).
Specifically, 12 male Long-Evans rats were food-deprived for 22 h with a 2 h feeding period each day. Rats were trained to consume daily food during the 2 h period over 25 days. The testing phase was initiated once the rats consistently consumed 16-18 g of food per day with ≤10% variance in amount of feed consumed. Feeding took place in designated individual boxes in a quiet room separate from the housing room. Continuous remote monitoring via video camera during feeding was used to assess the BSS. Food consumption was measured by weighing the total available food before and after the 2 h feeding window, correcting for spillage. Lorcaserin (1 mg/kg) was included as a reference control (Higgins et al, 2011, Neuropsychopharmacology. 37(5): 1177-1191). Subjects were tested using a repeated-measures, Latin square design with 2-3 days wash-out between treatment cycles.
On scheduled test days, animals were monitored remotely via video camera during the feeding access period. The occurrence of four mutually exclusive behaviors (eating/drinking, grooming, active, rest) were individually scored. Over the 2 h feeding period, behaviors were assessed every 30 seconds. Scores were compiled into 23 5 min timebins (timebin 24 was removed due to early removal of animals) and the frequency of each behavior within each timebin was calculated to determine a temporal frequency of each measure (Rodgers et al, 2010, Pharmacology Biochemistry and Behaviour. 97: 3-14). Percentage time was plotted for each behavioral sequence in each timebin to compare between treatment groups (Higgins et al, 2011, Neuropsychopharmacology. 37(5): 1177-1191).

[1] = Compound I-19 1 mg/kg, AVG of 12 animals
[2] = Compound I-19 1 mg/kg, raw score of individual animals LT-1 to LT-12
[3] = Compound I-19 3 mg/kg i.p., AVG of the group
[4] = Compound I-19 3 mg/kg i.p., raw score per animal

Clc1ccc(C2(OCC3OCCO3)c3ccccc3C3=NCCN32)cc1 (stereo not drawn) [Compound I-19]
BSS scoring R (resting), Time Bin 13 (60-65 TOTAL), AVG [1]: 0.13 | BSS scoring R (resting), Time Bin 14 (65-70 TOTAL), AVG [1]: 0.10 | BSS scoring R (resting), Time Bin 15 (70-75 TOTAL), AVG [1]: 0.13 | BSS scoring R (resting), Time Bin 16 (75-80 TOTAL), AVG [1]: 0.18 | BSS scoring R (resting), Time Bin 17 (80-85 TOTAL), AVG [1]: 0.14 | BSS scoring R (resting), Time Bin 18 (85-90 TOTAL), AVG [1]: 0.30 | BSS scoring A (active), Time Bin 13 (60-65 TOTAL) [2]: 2 and 1 (3×) and 0 (6×) and 3 (2×) | BSS scoring A (active), Time Bin 14 (65-70 TOTAL) [2]: 0 (4×) and 1 (4×) and 2 and 3 (2×) and 4 | BSS scoring A (active), Time Bin 15 (70-75 TOTAL) [2]: 0 (4×) and 2 (4×) and 1 (2×) and 5 (2×) | BSS scoring A (active), Time Bin 16 (75-80 TOTAL) [2]: 1 (3×) and 2 and 0 (5×) and 4 (2×) and 6 | BSS scoring A (active), Time Bin 17 (80-85 TOTAL) [2]: 9 and 0 (5×) and 4 and 2 and 3 and 1 (3×) | BSS scoring A (active), Time Bin 18 (85-90 TOTAL) [2]: 1 (3×) and 0 (5×) and 4 and 3 and 2 (2×) | BSS scoring E (eating/drinking), Time Bin 13 (60-65 TOTAL) [2]: 8 (2×) and 6 (3×) and 10 (3×) and 0 and 9 (2×) and 5 | BSS scoring E (eating/drinking), Time Bin 14 (65-70 TOTAL) [2]: 10 (3×) and 8 (2×) and 9 and 1 and 7 (3×) and 5 and 6 | BSS scoring E (eating/drinking), Time Bin 15 (70-75 TOTAL) [2]: 10 (2×) and 8 (3×) and 7 (2×) and 6 and 3 (2×) and 4 (2×) | BSS scoring E (eating/drinking), Time Bin 16 (75-80 TOTAL) [2]: 7 (3×) and 9 (2×) and 10 (2×) and 0 and 1 and 8 and 6 and 3 | BSS scoring E (eating/drinking), Time Bin 17 (80-85 TOTAL) [2]: 1 (2×) and 10 (3×) and 6 and 8 (2×) and 0 and 9 (3×) | BSS scoring E (eating/drinking), Time Bin 18 (85-90 TOTAL) [2]: 9 (2×) and 6 and 7 (3×) and 1 (2×) and 0 (2×) and 8 and 10 | BSS scoring G (grooming), Time Bin 13 (60-65 TOTAL) [2]: 0 (7×) and 2 (2×) and 1 (3×) | BSS scoring G (grooming), Time Bin 14 (65-70 TOTAL) [2]: 0 (8×) and 1 (4×) | BSS scoring G (grooming), Time Bin 15 (70-75 TOTAL) [2]: 0 (9×) and 1 and 3 and 2 | BSS scoring G (grooming), Time Bin 16 (75-80 TOTAL) [2]: 2 and 1 and 0 (10×) | BSS scoring G (grooming), Time Bin 17 (80-85 TOTAL) [2]: 0 (11×) and 1 | BSS scoring G (grooming), Time Bin 18 (85-90 TOTAL) [2]: 0 (8×) and 1 (4×) | BSS scoring R (resting), Time Bin 13 (60-65 TOTAL) [2]: 0 (7×) and 1 (3×) and 10 and 2 | BSS scoring R (resting), Time Bin 14 (65-70 TOTAL) [2]: 0 (8×) and 8 and 2 and 1 (2×) | BSS scoring R (resting), Time Bin 15 (70-75 TOTAL) [2]: 0 (5×) and 2 (2×) and 1 (3×) and 4 and 5 | BSS scoring R (resting), Time Bin 16 (75-80 TOTAL) [2]: 0 (6×) and 2 (2×) and 10 and 5 and 1 (2×) | BSS scoring R (resting), Time Bin 17 (80-85 TOTAL) [2]: 0 (9×) and 2 and 5 and 10 | BSS scoring R (resting), Time Bin 18 (85-90 TOTAL) [2]: 0 (5×) and 1 (2×) and 2 and 7 (2×) and 8 and 10 | BSS scoring A (active), Time Bin 1 (0-5 TOTAL), AVG [3]: 0.11 | BSS scoring A (active), Time Bin 2 (5-10 TOTAL), AVG [3]: 0.02 | BSS scoring A (active), Time Bin 3 (10-15 TOTAL), AVG [3]: 0.11 | BSS scoring A (active), Time Bin 4 (15-20 TOTAL), AVG [3]: 0.13 | BSS scoring A (active), Time Bin 5 (20-25 TOTAL), AVG [3]: 0.06 | BSS scoring A (active), Time Bin 6 (25-30 TOTAL), AVG [3]: 0.11 | BSS scoring E (eating/drinking), Time Bin 1 (0-5 TOTAL), AVG [3]: 0.86 | BSS scoring E (eating/drinking), Time Bin 2 (5-10 TOTAL), AVG [3]: 0.93 | BSS scoring E (eating/drinking), Time Bin 3 (10-15 TOTAL), AVG [3]: 0.87 | BSS scoring E (eating/drinking), Time Bin 4 (15-20 TOTAL), AVG [3]: 0.83 | BSS scoring E (eating/drinking), Time Bin 5 (20-25 TOTAL), AVG [3]: 0.88 | BSS scoring E (eating/drinking), Time Bin 6 (25-30 TOTAL), AVG [3]: 0.84 | BSS scoring G (grooming), Time Bin 1 (0-5 TOTAL), AVG [3]: 0.03 | BSS scoring G (grooming), Time Bin 2 (5-10 TOTAL), AVG [3]: 0.03 | BSS scoring G (grooming), Time Bin 3 (10-15 TOTAL), AVG [3]: 0.01 | BSS scoring G (grooming), Time Bin 4 (15-20 TOTAL), AVG [3]: 0.02 | BSS scoring G (grooming), Time Bin 5 (20-25 TOTAL), AVG [3]: 0.05 | BSS scoring G (grooming), Time Bin 6 (25-30 TOTAL), AVG [3]: 0.01 | BSS scoring R (resting), Time Bin 1 (0-5 TOTAL), AVG [3]: 0.00 | BSS scoring R (resting), Time Bin 2 (5-10 TOTAL), AVG [3]: 0.02 | BSS scoring R (resting), Time Bin 3 (10-15 TOTAL), AVG [3]: 0.02 | BSS scoring R (resting), Time Bin 4 (15-20 TOTAL), AVG [3]: 0.02 | BSS scoring R (resting), Time Bin 5 (20-25 TOTAL), AVG [3]: 0.02 | BSS scoring R (resting), Time Bin 6 (25-30 TOTAL), AVG [3]: 0.04 | BSS scoring A (active), Time Bin 1 (0-5 TOTAL) [4]: 2 and 1 (8×) and 3 and 0 (2×) | BSS scoring A (active), Time Bin 2 (5-10 TOTAL) [4]: 1 (2×) and 0 (10×) | BSS scoring A (active), Time Bin 3 (10-15 TOTAL) [4]: 2 (4×) and 1 (2×) and 0 (5×) and 3 | BSS scoring A (active), Time Bin 4 (15-20 TOTAL) [4]: 0 (6×) and 3 (2×) and 2 and 6 and 1 (2×) | BSS scoring A (active), Time Bin 5 (20-25 TOTAL) [4]: 1 (7×) and 0 (5×) | BSS scoring A (active), Time Bin 6 (25-30 TOTAL) [4]: 2 (2×) and 1 (5×) and 0 (4×) and 4 | BSS scoring E (eating/drinking), Time Bin 1 (0-5 TOTAL) [4]: 8 (4×) and 9 (6×) and 7 and 10 | BSS scoring E (eating/drinking), Time Bin 2 (5-10 TOTAL) [4]: 8 (3×) and 10 (7×) and 9 (2×) | BSS scoring E (eating/drinking), Time Bin 3 (10-15 TOTAL) [4]: 8 (4×) and 9 (2×) and 10 (4×) and 7 (2×) | BSS scoring E (eating/drinking), Time Bin 4 (15-20 TOTAL) [4]: 9 (2×) and 7 (2×) and 10 (4×) and 8 (3×) and 4 | BSS scoring E (eating/drinking), Time Bin 5 (20-25 TOTAL) [4]: 9 (4×) and 10 (3×) and 8 (4×) and 7 | BSS scoring E (eating/drinking), Time Bin 6 (25-30 TOTAL) [4]: 8 (2×) and 9 (3×) and 10 (4×) and 5 and 7 and 6 | BSS scoring G (grooming), Time Bin 1 (0-5 TOTAL) [4]: 0 (9×) and 1 (2×) and 2 | BSS scoring G (grooming), Time Bin 2 (5-10 TOTAL) [4]: 1 (2×) and 0 (9×) and 2 | BSS scoring G (grooming), Time Bin 3 (10-15 TOTAL) [4]: 0 (11×) and 1 | BSS scoring G (grooming), Time Bin 4 (15-20 TOTAL) [4]: 0 (10×) and 1 (2×) | BSS scoring G (grooming), Time Bin 5 (20-25 TOTAL) [4]: 0 (6×) and 1 (6×) | BSS scoring G (grooming), Time Bin 6 (25-30 TOTAL) [4]: 0 (11×) and 1 | BSS scoring R (resting), Time Bin 1 (0-5 TOTAL) [4]: 0 | BSS scoring R (resting), Time Bin 2 (5-10 TOTAL) [4]: 0 (10×) and 1 (2×) | BSS scoring R (resting), Time Bin 3 (10-15 TOTAL) [4]: 0 (11×) and 2
